{
  "source": "patent US20100249172A1",
  "about": "“9-CHLORO NOSCAPINE AND ITS USE IN TREATING CANCERS, INCLUDING DRUG-RESISTANT CANCERS” (EMORY UNIVERSITY, priority 2007, published 2010)",
  "key": {"[1]": {"tested_on": "MCF-7 cells", "assay": "Sulforhodamine B (SRB) cell proliferation assay", "format": "cell-based", "settings": "Homo sapiens, MCF7, MCF-7, 72 hours drug treatment", "method": "(§1) Sulforhodamine B (SRB) assay: The cell proliferation assay was performed in 96-well plates as described previously. Adherent cells (MCF-7 and MDA-MB-231) were seeded in 96-well plates at a density of 5×10^3 cells per well. They were treated with increasing concentrations of the halogenated analogs the next day while in log-phase growth. After 72 hours of drug treatment, cells were fixed with 50% trichloroacetic acid and stained with 0.4% sulforhodamine B dissolved in 1% acetic acid. After 30 minutes, cells were then washed with 1% acetic acid to remove the unbound dye. The protein-bound dye was extracted with 10 mM Tris base to determine the optical density at 564-nm wavelength.\n(§2) Suspension cells (CEM) were seeded into 96-well plates at a density of 5×10^3 cells per well and were treated with increasing concentrations of all halogenated analogs for 72 hours. Measurement of cell proliferation was performed colorimetrically by 3-(4,5-dimethylthiazol-2-yl)-5-(3-carboxymethoxyphenyl)-2-(4-sulphophenyl)-2H-tetrazolium, inner salt (MTS) assay, using the CellTiter96 AQueous One Solution Reagent (Promega, Madison, Wis.). Cells were exposed to MTS for 3 hours and absorbance was measured using a microplate reader (Molecular Devices, Sunnyvale, Calif.) at an optical density (OD) of 490 nm. […]"}, "[2]": {"tested_on": "MDA-MB-231 cells", "assay": "Sulforhodamine B (SRB) cell proliferation assay", "format": "cell-based", "settings": "Homo sapiens, MDA-MB-231, 72 hours drug treatment", "method": "as §1, §2"}, "[3]": {"tested_on": "MCF-7 cells", "assay": "Cell cycle analysis by flow cytometry (propidium iodide)", "format": "cell-based, human", "settings": "for G0/G1 % / G2/M % / S % / Sub-G1 %: mean ± S.E.M.", "method": "The flow cytometric evaluation of the cell cycle status was performed as described previously. Briefly, 2×10^6 cells were centrifuged, washed twice with ice-cold PBS, and fixed in 70% ethanol. Tubes containing the cell pellets were stored at 4° C. for at least 24 hours. Cells were then centrifuged at 1000×g for 10 min and the supernatant was discarded. The pellets were washed twice with 5 ml of PBS and then stained with 0.5 ml of propidium iodide (0.1% in 0.6% Triton-X in PBS) and 0.5 ml of RNase A (2 mg/ml) for 45 minutes in dark. Samples were then analyzed on a FACSCalibur flow cytometer (Beckman Coulter Inc., Fullerton, Calif.).\nTo investigate the precise mechanisms of cell death, the effect of 9-cloro-noscapine and other halogenated noscapine analogs on percent G2/M cells (mitotic index) and percent sub-G1 cells (apoptotic index) was examined as a function of dose and time in MCF-7 cells using fluorescence activated cell sorting (FACS) analysis. The effect of all compounds including noscapine was evaluated at three doses-5 μM, 10 μM and 25 μM for 0, 24, 48 and 72 hours of drug treatment. […] Fluorescently labeled DNA is a good indicator of cell cycle progression and cell death. An unreplicated complement of diploid (2N) DNA cells represents the G1 phase while duplicated tetraploid (4N) DNA cells represent G2 and M phases. Cells in the process of DNA duplication between diploid and tetraploid peaks represent S phase when DNA is being synthesized. Less than diploid DNA appears in populations of dying cells that degrade their DNA to different extents. Treatment of MCF-7 cells with these compounds for 0, 24, 48 and 72 hours led to profound perturbations of the cell cycle profile at 25 μM (FIGS. 3 A-D). […] The distribution of cell population over G0/G1, S, G2/M and sub-G1 phases of the cell cycle for 25 μM concentration is shown in Table 1."}, "[4]": {"tested_on": "normal human fibroblast cells", "assay": "Cell cycle progression in normal cells", "format": "cell-based"}},
  "data": [
    {"smiles": "COc1ccc2c(c1OC)C(=O)O[C@@H]2[C@H]1c2c(c(Cl)c3c(c2OC)OCO3)CCN1C", "note": "[9-Cl-nos, (S)-3-((R)-9-chloro-4-methoxy-6-methyl-5,6,7,8-tetrahydro-[1,3]dioxolo[4,5-g]isoquinolin-5-yl)-6,7-dimethoxyisobenzofuran-1(3H)-one]", "values": [
      {"measurement": "IC50", "setting": "[1]", "result": "1.9 ± 0.3", "unit": "µM"},
      {"measurement": "IC50", "setting": "[2]", "result": "3.5 ± 0.4", "unit": "µM"},
      {"measurement": "G0/G1 %", "setting": "[3]; 25 μM, 0 h", "result": "69 ± 5.6", "unit": "%"},
      {"measurement": "G2/M %", "setting": "[3]; 25 μM, 0 h", "result": "20.7 ± 3.4", "unit": "%"},
      {"measurement": "S %", "setting": "[3]; 25 μM, 0 h", "result": "7.5 ± 1.6", "unit": "%"},
      {"measurement": "Sub-G1 %", "setting": "[3]; 25 μM, 0 h", "result": "1.4 ± 0.5", "unit": "%"},
      {"measurement": "G0/G1 %", "setting": "[3]; 25 μM, 24 h", "result": "11.5 ± 2.7", "unit": "%"},
      {"measurement": "G2/M %", "setting": "[3]; 25 μM, 24 h", "result": "59.7 ± 5.2", "unit": "%"},
      {"measurement": "S %", "setting": "[3]; 25 μM, 24 h", "result": "4.3 ± 1.4", "unit": "%"},
      {"measurement": "Sub-G1 %", "setting": "[3]; 25 μM, 24 h", "result": "15.3 ± 2.5", "unit": "%"},
      {"measurement": "accumulation of cells in the G2/M phase (in words)", "setting": "[3]; 25 μM, 24 hours", "result": "massive accumulation of cells in the G2/M phase"},
      {"measurement": "G0/G1 %", "setting": "[3]; 25 μM, 48 h", "result": "8 ± 3.3", "unit": "%"},
      {"measurement": "G2/M %", "setting": "[3]; 25 μM, 48 h", "result": "42.4 ± 3.8", "unit": "%"},
      {"measurement": "S %", "setting": "[3]; 25 μM, 48 h", "result": "4 ± 1.1", "unit": "%"},
      {"measurement": "Sub-G1 %", "setting": "[3]; 25 μM, 48 h", "result": "37.8 ± 3.2", "unit": "%"},
      {"measurement": "G0/G1 %", "setting": "[3]; 25 μM, 72 h", "result": "5.9 ± 1.9", "unit": "%"},
      {"measurement": "G2/M %", "setting": "[3]; 25 μM, 72 h", "result": "35.3 ± 3.9", "unit": "%"},
      {"measurement": "S %", "setting": "[3]; 25 μM, 72 h", "result": "4.1 ± 1.4", "unit": "%"},
      {"measurement": "Sub-G1 %", "setting": "[3]; 25 μM, 72 h", "result": "50.2 ± 2.5", "unit": "%"},
      {"measurement": "percent sub-G1 cells compared with noscapine", "setting": "[3]; lower doses (5 μM and 10 μM), 72 hours", "result": "higher"},
      {"measurement": "effect on cell cycle of normal cells", "setting": "[4]", "result": "without affecting the cell cycle"}
    ]}
  ]
}
